Patent US7608620B2, “LPAAT-β inhibitors and uses thereof” (Cell Therapeutics, Inc., priority 2000, dated 2009)

Biological target: T1, LPAAT-β (Homo sapiens, UniProt O15120)
T1 construct: the full-length human LPAAT-β cDNA was amplified by PCR; made in house; host or cells: Sf9 insect cells (baculovirus, pFastBac HTc); membrane fraction
T1 sequence (O15120 24-278): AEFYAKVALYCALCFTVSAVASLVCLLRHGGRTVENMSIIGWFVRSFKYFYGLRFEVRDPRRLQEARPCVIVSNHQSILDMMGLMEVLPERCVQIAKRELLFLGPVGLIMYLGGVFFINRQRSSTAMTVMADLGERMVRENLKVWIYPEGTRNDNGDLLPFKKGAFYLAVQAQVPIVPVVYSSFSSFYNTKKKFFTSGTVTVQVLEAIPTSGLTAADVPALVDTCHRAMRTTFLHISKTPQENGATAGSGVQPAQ
Experiment: LPAATβ colorimetric assay (DTNB detection of released CoA)
Type: biochemical
Conditions: Sf9 cell membrane overexpressing LPAAT-β
Description: For the construction of Baculovirus expression vectors, the full-length human LPAAT-β cDNA was amplified by PCR from the DNA template pCE9.LPAAT-β (West et al., DNA Cell Biol. 16:691-701 (1997)) using the primers 5′-TGATATCCGAAGAAGATCTTATGGAGCTGTGGCCGTGTC-3′ (olpb1F; SEQ ID NO:3) and 5′-CAGGCTCTAG ACTACTGGGC CGGCTGCAC-3′ (olpb1R; SEQ ID NO:4). The ˜870 bp fragment generated was reamplified by PCR using the primers 5° CCTACGTCG ACATGGAACAAAAATTGATATCCGAAGAAGATC-3′ (olpb2F; SEQ ID NO:5) and 5′-CAGGCTCTAG ACTACTGGGC CGGCTGCAC-3′ (olpb1R; SEQ ID NO:6). The ˜890 bp fragment generated was then cleaved with Sal I and Xba I for insertion into pFastBac™ HTc vector (Life Technologies, Gaithersberg, Md.) between the Sal I and Xba I sites for the generation of the plasmid pFB.LPAAT-β. This plasmid was then transformed into E. coli DH10Bac™ (Life Technologies, Gaithersberg, Md.) for the generation of recombinant Bacmid DNA for transfection into HighFive (Invitrogen, San Diego, Calif.) or SF9 insect cells for the production of recombinant Baculovirus stocks using the protocol described in the Bac-to-Bac® Baculovirus Expression System (Life Technologies, Gaithersberg, Md.), a eukaryotic expression system for generating recombinant baculovirus through site- specific transposition in E. coli. Viral stocks harvested from the transfected cells can then be used to infect fresh insect cells for the subsequent expression of LPAAT-β fusion protein with a poly-histidine tag and a myc-epitope near its N-terminus. The membrane fraction from these Sf9 cells would be the source of LPAAT enzyme.
For the preparation of membranes From Sf9 Cells, all steps are performed on ice or at 4° C. Sf9 cell pellets (˜10^8 cells) were thawed and resuspended in 1-2 ml of buffer A (20 mM Hepes, pH 7.5, 1 mM DTT, 1 mM EDTA, 20% w/v glycerol, 1 mM Benzamidine, 1 μg/ml soybean trypsin inhibitor (SBTI), 1 μg/ml pepstatin A) w/o DTT but with 1 mM Pefabloc. The cells were lysed by sonication using a Branson Sonifier at output=2, duty cycle=2, 10 pulses each at 10 s. with the tip of small sonicator probe submerged but not touching the walls. DTT was then added to 1 mM from a 1 M stock. The samples were centrifuged at 1500 rpm for 5 min. The low speed supernatant was saved and centrifuged (TLA 100.3 rotor, polycarbonate tubes, 2 ml/tube or 1.5 ml/tube minimum) at 100000×g for 1 hr. The high speed pellet was resuspend in Buffer A with a probe sonicator (10 pulses @ output #2 and duty cycle 20%) as a source of LPAAT enzyme.
LPAAT-β catalyzes the transfer of an acyl group from a donor such as acyl-CoA to LPA. The transfer of the acyl group from acyl-CoA to LPA leads to the release of free CoA, which can be reacted with the thiol reagent, 5,5′-dithiobis(2-nitrobenzoic acid) (DTNB). The reaction between DTNB and the free sulfhydryl group from CoA generates a yellow-colored product, 3-carboxylato-4-nitrothiophenolate (CNP), that absorbs at 413 nm. LPAAT-β derived from Sf9 cell membrane overexpressing LPAAT-β were resuspended in HEPES saline buffer (20 mM HEPES pH 7.5, 150 mM NaCl), 1 mg/ml BSA and 72 μl aliquots were distributed into 96-well microtiter plates. 8 μl of compound of interest at 200 μM dissolved in 100% DMSO was added into each well. 20 μl of 1 mM 18:1-CoA and 1 mM sn-1-18: 1 lysoPA was then added to each well to initiate the reaction and allowed to run at room temperature for 25 min. 100 μl of 1 mM DTNB in 100% ethanol was then added to each well to quench the reaction and for color development. The absorbance at 405 nm, measured using a spectrophotometer plate reader, is proportional to the activity of LPAAT-β in the sample. This colorimetric assay was used for the high throughput screening of LPAAT inhibitors. […] Compounds that gave a reading of less than 0.06 arbitrary units (indicated by arrow on right margin) were selected for further study.

SMILES	IC50 [nM]
Clc1ccc(Nc2nc(Cl)nc(Nc3ccc4c(c3)OCO4)n2)cc1 [CT-31978, N-benzo[1,3]dioxol-5-yl-6-chloro-N′-(4-chlorophenyl)-[1,3,5]triazine-2,4-diamine]	1000
Clc1nc(Nc2ccccc2)nc(Nc2ccc3c(c2)OCCO3)n1 [CT-32028, 6-chloro-N-(2,3-dihydrobenzo[1,4]dioxin-6-yl)-N′-phenyl-[1,3,5]triazine-2,4-diamine]	200
COc1ccc(Nc2nc(Cl)nc(Nc3ccc(Cl)cc3)n2)cc1 [CT-31867, 6-chloro-N-(4-chlorophenyl)-N′-(4-methoxy-phenyl)-[1,3,5]triazine-2,4-diamine]	750
CSc1nc(Nc2ccccc2)nc(Nc2ccc(Cl)cc2)n1 [CT-31888, N-(4-chlorophenyl)-6-methylsulfanyl-N′-phenyl-[1,3,5]triazine-2,4-diamine]	3100
COc1ccc(Nc2nc(Cl)nc(Nc3ccccc3)n2)cc1 [CT-31942, 6-chloro-N-(4-methoxyphenyl)-N′-phenyl-[1,3,5]triazine-2,4-diamine]	400

More lines, now with the values ahead:

IC50 [nM]	SMILES
3800	CCCNc1nc(Nc2ccc(Cl)cc2)nc(OC)n1 [CT-117147, N-(4-chlorophenyl)-6-methoxy-N′-propyl-[1,3,5]triazine-2,4-diamine]
200	Clc1nc(Nc2ccccc2)nc(Nc2ccc3c(c2)OCO3)n1 [CT-32042, N-benzo[1,3]dioxol-5-yl-6-chloro-N′-phenyl-[1,3,5]triazine-2,4-diamine]
160	CCCNc1nc(Cl)nc(Nc2ccc(Cl)cc2)n1 [CT-116988, 6-chloro-N-2-(4-chlorophenyl)-N-4-propyl-[1,3,5]triazine-2,4-diamine]
650	Clc1nc(Nc2ccccc2)nc(Nc2ccc3c(c2)CCC3)n1 [CT-32099, 6-chloro-N-indan-5-yl-N′-phenyl-[1,3,5]triazine-2,4-diamine]
